Assay results: ChEMBL document CHEMBL5058645, “Data for DCP probe JNJ-6204” (2022)

How the values were obtained:
[1] = target: Hepatocyte growth factor receptor (Homo sapiens) (UniProt P08581); test: Met(h) Kinase panel; details: Compound concentration 1.0 uM, tested as the 2H-labelled form
[2] = target: Calcium/calmodulin-dependent protein kinase type 1G (Homo sapiens) (UniProt Q96NX5); test: CaMKIgamma(h) Kinase panel; details: Compound concentration 1.0 uM, tested as the 2H-labelled form
[3] = target: Serine/threonine-protein kinase 26 (Homo sapiens) (UniProt Q9P289); test: MST4(h) Kinase panel; details: Compound concentration 1.0 uM, tested as the 2H-labelled form
[4] = target: Serine/threonine-protein kinase ATR (Homo sapiens) (UniProt Q13535); test: ATR/ATRIP(h) Kinase panel; details: Compound concentration 1.0 uM, tested as the 2H-labelled form
[5] = target: AP2-associated protein kinase 1 (Homo sapiens) (UniProt Q2M2I8); test: AAK1(h) Kinase panel; details: Compound concentration 1.0 uM, tested as the 2H-labelled form
[6] = target: Inhibitor of nuclear factor kappa-B kinase subunit alpha (Homo sapiens) (UniProt O15111); test: IKKalpha(h) Kinase panel; details: Compound concentration 1.0 uM, tested as the 2H-labelled form
[7] = target: 5-hydroxytryptamine receptor 1A (Homo sapiens) (UniProt P08908); details: Compound concentration 10.0 uM, tested as the 2H-labelled form
[8] = target: Epidermal growth factor receptor (Homo sapiens) (UniProt P00533); test: EGFR(h) Kinase panel; details: Compound concentration 1.0 uM, tested as the 2H-labelled form
[9] = target: Mitogen-activated protein kinase kinase kinase 11 (Homo sapiens) (UniProt Q16584); test: MLK3(h) Kinase panel; details: Compound concentration 1.0 uM, tested as the 2H-labelled form
[10] = target: Protein kinase C beta type (Homo sapiens) (UniProt P05771); test: PKCbetaII (h) Kinase panel; details: Compound concentration 1.0 uM, tested as the 2H-labelled form
[11] = target: LIM domain kinase 1 (Homo sapiens) (UniProt P53667); test: LIMK1(h) Kinase panel; details: Compound concentration 1.0 uM, tested as the 2H-labelled form
[12] = target: Tyrosine-protein kinase Fes/Fps (Homo sapiens) (UniProt P07332); test: Fes(h) Kinase panel; details: Compound concentration 1.0 uM, tested as the 2H-labelled form
[13] = target: cAMP-dependent protein kinase catalytic subunit PRKX (Homo sapiens) (UniProt P51817); test: PrKX(h) Kinase panel; details: Compound concentration 1.0 uM, tested as the 2H-labelled form
[14] = target: Tyrosine-protein kinase BTK (Homo sapiens) (UniProt Q06187); test: BTK(h) Kinase panel; details: Compound concentration 1.0 uM, tested as the 2H-labelled form
[15] = target: Cyclin-dependent kinase 7 (Homo sapiens) (UniProt P50613); test: CDK7/cyclinH/MAT1(h) Kinase panel; details: Compound concentration 1.0 uM, tested as the 2H-labelled form
[16] = target: Serine/threonine-protein kinase PLK4 (Homo sapiens) (UniProt O00444); test: Plk4(h) Kinase panel; details: Compound concentration 1.0 uM, tested as the 2H-labelled form
[17] = target: Receptor-interacting serine/threonine-protein kinase 2 (Homo sapiens) (UniProt O43353); test: RIPK2(h) Kinase panel; details: Compound concentration 1.0 uM, tested as the 2H-labelled form
[18] = target: Serine/threonine-protein kinase PAK 4 (Homo sapiens) (UniProt O96013); test: PAK4(h) Kinase panel; details: Compound concentration 1.0 uM, tested as the 2H-labelled form
[19] = target: Proto-oncogene tyrosine-protein kinase ROS (Homo sapiens) (UniProt P08922); test: Ros(h) Kinase panel; details: Compound concentration 1.0 uM, tested as the 2H-labelled form
[20] = target: G protein-coupled receptor kinase 3 (Homo sapiens) (UniProt P35626); test: GRK3(h) Kinase panel; details: Compound concentration 1.0 uM, tested as the 2H-labelled form
[21] = target: [Pyruvate dehydrogenase (acetyl-transferring)] kinase isozyme 2, mitochondrial (Homo sapiens) (UniProt Q15119); test: PDHK2(h) Kinase panel; details: Compound concentration 1.0 uM, tested as the 2H-labelled form
[22] = target: 5-hydroxytryptamine receptor 1D (Homo sapiens) (UniProt P28221); details: Compound concentration 10.0 uM, tested as the 2H-labelled form
[23] = target: Ribosomal protein S6 kinase alpha-4 (Homo sapiens) (UniProt O75676); test: MSK2(h) Kinase panel; details: Compound concentration 1.0 uM, tested as the 2H-labelled form
[24] = target: Vascular endothelial growth factor receptor 1 (Homo sapiens) (UniProt P17948); test: Flt1(h) Kinase panel; details: Compound concentration 1.0 uM, tested as the 2H-labelled form
[25] = target: Fibroblast growth factor receptor 1 (Homo sapiens) (UniProt P11362); test: FGFR1(h) Kinase panel; details: Compound concentration 1.0 uM, tested as the 2H-labelled form
[26] = target: Muscarinic acetylcholine receptor M1 (Homo sapiens) (UniProt P11229); details: Compound concentration 10.0 uM, tested as the 2H-labelled form
[27] = target: NT-3 growth factor receptor (Homo sapiens) (UniProt Q16288); test: TrkC(h) Kinase panel; details: Compound concentration 1.0 uM, tested as the 2H-labelled form
[28] = target: LIM domain kinase 2 (Homo sapiens) (UniProt P53671); test: LIMK2(h) Kinase panel; details: Compound concentration 1.0 uM, tested as the 2H-labelled form
[29] = target: Serine/threonine-protein kinase 3 (Homo sapiens) (UniProt Q13188); test: MST2(h) Kinase panel; details: Compound concentration 1.0 uM, tested as the 2H-labelled form
[30] = target: Serine-protein kinase ATM (Homo sapiens) (UniProt Q13315); test: ATM(h) Kinase panel; details: Compound concentration 1.0 uM, tested as the 2H-labelled form
[31] = target: Ribosomal protein S6 kinase alpha-1 (Homo sapiens) (UniProt Q15418); test: Rsk1(h) Kinase panel; details: Compound concentration 1.0 uM, tested as the 2H-labelled form
[32] = target: Serine/threonine-protein kinase TAO3 (Homo sapiens) (UniProt Q9H2K8); test: TAO3(h) Kinase panel; details: Compound concentration 1.0 uM, tested as the 2H-labelled form
[33] = target: TRAF2 and NCK-interacting protein kinase (Homo sapiens, UniProt Q9UKE5); test: TNIK(h) Kinase panel; details: Compound concentration 1.0 uM, tested as the 2H-labelled form
[34] = target: Serine/threonine-protein kinase WNK3 (Homo sapiens) (UniProt Q9BYP7); test: WNK3(h) Kinase panel; details: Compound concentration 1.0 uM, tested as the 2H-labelled form
[35] = target: Mitogen-activated protein kinase kinase kinase 3 (Homo sapiens) (UniProt Q99759); test: MEKK3(h) Kinase panel; details: Compound concentration 1.0 uM, tested as the 2H-labelled form
[36] = target: Serine/threonine-protein kinase Nek7 (Homo sapiens) (UniProt Q8TDX7); test: NEK7(h) Kinase panel; details: Compound concentration 1.0 uM, tested as the 2H-labelled form
[37] = target: cAMP-dependent protein kinase catalytic subunit alpha (Homo sapiens) (UniProt P17612); test: PKA(h) Kinase panel; details: Compound concentration 1.0 uM, tested as the 2H-labelled form
[38] = target: Phosphatidylinositol 5-phosphate 4-kinase type-2 alpha (Homo sapiens) (UniProt P48426); test: PIP4K2a(h) Kinase panel; details: Compound concentration 1.0 uM, tested as the 2H-labelled form
[39] = target: Tyrosine-protein kinase HCK (Homo sapiens) (UniProt P08631); test: Hck(h) activated Kinase panel; details: Compound concentration 1.0 uM, tested as the 2H-labelled form
[40] = target: FKBP12A/mTOR (Homo sapiens) (UniProt P62942+P42345); test: mTOR/FKBP12(h) Kinase panel; type: protein-complex assay; details: Compound concentration 1.0 uM, tested as the 2H-labelled form
[41] = target: Eukaryotic translation initiation factor 2-alpha kinase 3 (Homo sapiens) (UniProt Q9NZJ5); test: PEK(h) Kinase panel; details: Compound concentration 1.0 uM, tested as the 2H-labelled form
[42] = target: Serine/threonine-protein kinase ULK2 (Homo sapiens) (UniProt Q8IYT8); test: ULK2(h) Kinase panel; details: Compound concentration 1.0 uM, tested as the 2H-labelled form
[43] = target: Vascular endothelial growth factor receptor 2 (Homo sapiens) (UniProt P35968); test: KDR(h) Kinase panel; details: Compound concentration 1.0 uM, tested as the 2H-labelled form
[44] = target: Calcium/calmodulin-dependent protein kinase type IV (Homo sapiens) (UniProt Q16566); test: CaMKIV(h) Kinase panel; details: Compound concentration 1.0 uM, tested as the 2H-labelled form
[45] = target: Muscarinic acetylcholine receptor M3 (Homo sapiens) (UniProt P20309); details: Compound concentration 10.0 uM, tested as the 2H-labelled form
[46] = target: Sodium-dependent dopamine transporter (Homo sapiens, UniProt Q01959); details: Compound concentration 10.0 uM, tested as the 2H-labelled form
[47] = target: Tyrosine-protein kinase receptor TYRO3 (Homo sapiens) (UniProt Q06418); test: Rse(h) Kinase panel; details: Compound concentration 1.0 uM, tested as the 2H-labelled form
[48] = target: 5-hydroxytryptamine receptor 1E (Homo sapiens) (UniProt P28566); details: Compound concentration 10.0 uM, tested as the 2H-labelled form
[49] = target: 5-hydroxytryptamine receptor 1B (Homo sapiens) (UniProt P28222); details: Compound concentration 10.0 uM, tested as the 2H-labelled form
[50] = target: Mitogen-activated protein kinase kinase kinase 21 (Homo sapiens) (UniProt Q5TCX8); test: MLK4(h) Kinase panel; details: Compound concentration 1.0 uM, tested as the 2H-labelled form
[51] = target: Activin receptor type-1-like (Homo sapiens) (UniProt P37023); test: ALK1(h) Kinase panel; details: Compound concentration 1.0 uM, tested as the 2H-labelled form

Measured: inhibition

Fibroblast growth factor receptor 1 (Homo sapiens), sequence (P11362 22-822 limits assumed): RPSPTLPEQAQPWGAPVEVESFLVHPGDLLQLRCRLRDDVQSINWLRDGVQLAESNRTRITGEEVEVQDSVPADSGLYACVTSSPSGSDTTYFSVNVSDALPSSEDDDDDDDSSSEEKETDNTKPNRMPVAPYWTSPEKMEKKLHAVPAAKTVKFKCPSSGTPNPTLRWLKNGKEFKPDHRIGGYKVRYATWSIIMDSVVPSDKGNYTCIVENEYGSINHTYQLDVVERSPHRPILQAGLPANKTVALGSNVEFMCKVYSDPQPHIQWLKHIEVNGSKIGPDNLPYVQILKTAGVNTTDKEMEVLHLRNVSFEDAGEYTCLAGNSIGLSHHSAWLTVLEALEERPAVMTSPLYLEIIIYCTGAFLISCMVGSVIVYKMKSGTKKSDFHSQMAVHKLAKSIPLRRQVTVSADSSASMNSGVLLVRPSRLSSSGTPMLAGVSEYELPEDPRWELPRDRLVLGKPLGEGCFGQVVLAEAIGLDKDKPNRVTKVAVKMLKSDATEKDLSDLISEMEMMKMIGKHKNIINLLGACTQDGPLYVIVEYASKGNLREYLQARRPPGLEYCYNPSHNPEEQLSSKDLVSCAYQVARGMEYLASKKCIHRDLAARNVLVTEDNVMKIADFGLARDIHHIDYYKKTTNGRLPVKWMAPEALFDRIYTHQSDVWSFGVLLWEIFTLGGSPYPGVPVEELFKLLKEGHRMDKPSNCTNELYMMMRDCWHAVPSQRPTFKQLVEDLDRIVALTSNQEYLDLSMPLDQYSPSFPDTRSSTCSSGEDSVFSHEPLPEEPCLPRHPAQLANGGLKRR
Ribosomal protein S6 kinase alpha-1 (Homo sapiens), sequence (Q15418 whole entry): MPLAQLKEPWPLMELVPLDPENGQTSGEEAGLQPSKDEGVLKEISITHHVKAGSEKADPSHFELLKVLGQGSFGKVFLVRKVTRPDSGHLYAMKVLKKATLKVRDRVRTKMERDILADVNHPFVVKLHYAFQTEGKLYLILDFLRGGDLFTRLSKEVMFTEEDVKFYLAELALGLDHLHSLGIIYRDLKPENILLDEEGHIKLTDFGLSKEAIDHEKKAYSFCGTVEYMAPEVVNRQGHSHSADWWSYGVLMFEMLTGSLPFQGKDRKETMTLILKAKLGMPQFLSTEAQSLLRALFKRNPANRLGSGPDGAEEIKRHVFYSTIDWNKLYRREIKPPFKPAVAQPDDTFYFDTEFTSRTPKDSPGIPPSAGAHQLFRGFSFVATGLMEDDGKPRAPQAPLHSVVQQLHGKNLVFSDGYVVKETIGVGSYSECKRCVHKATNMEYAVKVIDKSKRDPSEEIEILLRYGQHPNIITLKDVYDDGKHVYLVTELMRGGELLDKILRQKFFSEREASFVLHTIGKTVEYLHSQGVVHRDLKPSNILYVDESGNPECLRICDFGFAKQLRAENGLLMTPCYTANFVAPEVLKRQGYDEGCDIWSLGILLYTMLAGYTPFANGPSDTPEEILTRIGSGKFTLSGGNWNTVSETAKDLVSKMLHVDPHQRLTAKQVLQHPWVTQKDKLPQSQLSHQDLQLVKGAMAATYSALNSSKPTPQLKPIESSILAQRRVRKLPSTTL
Tyrosine-protein kinase HCK (Homo sapiens), sequence (P08631 2-526 limits assumed): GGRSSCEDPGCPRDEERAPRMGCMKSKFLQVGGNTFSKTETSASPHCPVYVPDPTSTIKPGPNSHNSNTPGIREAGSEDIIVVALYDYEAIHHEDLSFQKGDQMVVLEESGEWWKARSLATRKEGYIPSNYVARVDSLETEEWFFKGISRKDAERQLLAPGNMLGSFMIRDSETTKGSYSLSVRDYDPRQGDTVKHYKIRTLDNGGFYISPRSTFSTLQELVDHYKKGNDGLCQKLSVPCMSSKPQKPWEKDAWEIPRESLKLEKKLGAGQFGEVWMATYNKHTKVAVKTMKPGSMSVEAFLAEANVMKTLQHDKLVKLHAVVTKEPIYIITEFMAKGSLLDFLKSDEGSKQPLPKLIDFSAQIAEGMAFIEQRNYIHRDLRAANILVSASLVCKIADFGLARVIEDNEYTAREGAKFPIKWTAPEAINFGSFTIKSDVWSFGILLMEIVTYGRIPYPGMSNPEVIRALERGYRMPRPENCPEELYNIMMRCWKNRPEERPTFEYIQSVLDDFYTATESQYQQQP
Serine/threonine-protein kinase Nek7 (Homo sapiens), sequence (Q8TDX7 whole entry, looked up): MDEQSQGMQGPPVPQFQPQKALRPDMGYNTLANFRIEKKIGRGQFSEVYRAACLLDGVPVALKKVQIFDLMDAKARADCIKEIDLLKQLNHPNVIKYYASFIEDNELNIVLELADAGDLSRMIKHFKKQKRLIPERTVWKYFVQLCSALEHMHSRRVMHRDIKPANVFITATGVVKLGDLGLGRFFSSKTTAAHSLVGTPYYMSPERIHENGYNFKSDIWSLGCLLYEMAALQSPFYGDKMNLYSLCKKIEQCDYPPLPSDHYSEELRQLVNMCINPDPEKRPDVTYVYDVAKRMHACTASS
Vascular endothelial growth factor receptor 1 (Homo sapiens), sequence (P17948 whole entry): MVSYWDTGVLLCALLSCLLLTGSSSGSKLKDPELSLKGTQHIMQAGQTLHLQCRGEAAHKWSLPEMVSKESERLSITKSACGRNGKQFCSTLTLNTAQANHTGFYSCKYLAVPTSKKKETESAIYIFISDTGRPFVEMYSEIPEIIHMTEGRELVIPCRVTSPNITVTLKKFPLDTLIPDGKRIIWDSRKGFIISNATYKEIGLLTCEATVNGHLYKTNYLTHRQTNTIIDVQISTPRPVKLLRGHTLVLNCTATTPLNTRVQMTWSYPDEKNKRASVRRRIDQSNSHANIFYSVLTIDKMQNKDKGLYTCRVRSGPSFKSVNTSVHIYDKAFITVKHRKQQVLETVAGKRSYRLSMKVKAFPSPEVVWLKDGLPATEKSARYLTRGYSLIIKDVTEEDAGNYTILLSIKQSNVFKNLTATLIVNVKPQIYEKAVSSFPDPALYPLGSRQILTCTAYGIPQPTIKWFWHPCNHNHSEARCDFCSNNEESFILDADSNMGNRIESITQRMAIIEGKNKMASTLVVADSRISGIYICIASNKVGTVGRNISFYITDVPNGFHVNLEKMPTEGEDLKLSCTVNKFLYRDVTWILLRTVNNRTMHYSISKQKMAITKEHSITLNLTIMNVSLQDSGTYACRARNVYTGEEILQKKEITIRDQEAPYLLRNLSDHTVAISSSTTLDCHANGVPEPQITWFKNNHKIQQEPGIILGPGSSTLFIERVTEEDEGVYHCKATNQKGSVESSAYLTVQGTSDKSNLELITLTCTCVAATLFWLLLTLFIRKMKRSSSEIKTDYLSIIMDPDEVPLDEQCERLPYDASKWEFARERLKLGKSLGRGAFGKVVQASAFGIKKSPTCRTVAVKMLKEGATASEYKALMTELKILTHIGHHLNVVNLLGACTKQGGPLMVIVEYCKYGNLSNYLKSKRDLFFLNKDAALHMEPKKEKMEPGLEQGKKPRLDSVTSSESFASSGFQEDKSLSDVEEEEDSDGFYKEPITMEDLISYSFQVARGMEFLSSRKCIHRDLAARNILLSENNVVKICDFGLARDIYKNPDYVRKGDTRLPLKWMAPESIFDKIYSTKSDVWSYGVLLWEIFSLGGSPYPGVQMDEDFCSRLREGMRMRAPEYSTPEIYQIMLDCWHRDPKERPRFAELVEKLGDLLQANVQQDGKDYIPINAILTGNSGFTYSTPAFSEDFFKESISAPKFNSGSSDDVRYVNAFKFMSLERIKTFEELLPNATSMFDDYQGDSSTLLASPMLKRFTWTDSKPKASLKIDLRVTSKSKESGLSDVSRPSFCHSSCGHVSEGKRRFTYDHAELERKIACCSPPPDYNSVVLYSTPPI
Serine/threonine-protein kinase PLK4 (Homo sapiens), sequence (O00444 whole entry): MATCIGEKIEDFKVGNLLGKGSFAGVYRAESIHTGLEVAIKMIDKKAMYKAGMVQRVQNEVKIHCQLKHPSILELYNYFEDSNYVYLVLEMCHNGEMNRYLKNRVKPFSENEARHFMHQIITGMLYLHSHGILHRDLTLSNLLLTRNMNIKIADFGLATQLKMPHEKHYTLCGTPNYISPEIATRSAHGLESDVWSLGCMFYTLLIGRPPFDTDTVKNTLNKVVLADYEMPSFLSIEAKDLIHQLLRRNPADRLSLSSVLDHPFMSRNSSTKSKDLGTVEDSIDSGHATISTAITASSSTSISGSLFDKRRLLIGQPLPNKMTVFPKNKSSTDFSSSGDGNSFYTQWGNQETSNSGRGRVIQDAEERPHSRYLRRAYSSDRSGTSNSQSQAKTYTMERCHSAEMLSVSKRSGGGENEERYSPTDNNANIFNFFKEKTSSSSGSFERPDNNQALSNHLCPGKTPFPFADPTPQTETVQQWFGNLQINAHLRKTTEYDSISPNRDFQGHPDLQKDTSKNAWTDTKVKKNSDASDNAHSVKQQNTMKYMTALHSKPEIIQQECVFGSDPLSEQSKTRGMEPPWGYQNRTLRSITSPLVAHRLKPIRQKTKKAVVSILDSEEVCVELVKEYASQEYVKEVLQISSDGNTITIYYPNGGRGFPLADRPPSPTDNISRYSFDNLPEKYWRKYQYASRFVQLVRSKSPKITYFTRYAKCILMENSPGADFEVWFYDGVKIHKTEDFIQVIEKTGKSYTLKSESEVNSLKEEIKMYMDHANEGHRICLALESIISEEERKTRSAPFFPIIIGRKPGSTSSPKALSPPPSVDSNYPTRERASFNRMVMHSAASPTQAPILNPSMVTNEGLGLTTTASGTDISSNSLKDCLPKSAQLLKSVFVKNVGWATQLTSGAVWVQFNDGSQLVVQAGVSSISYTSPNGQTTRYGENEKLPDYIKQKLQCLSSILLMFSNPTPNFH
cAMP-dependent protein kinase catalytic subunit PRKX (Homo sapiens), sequence (P51817 whole entry): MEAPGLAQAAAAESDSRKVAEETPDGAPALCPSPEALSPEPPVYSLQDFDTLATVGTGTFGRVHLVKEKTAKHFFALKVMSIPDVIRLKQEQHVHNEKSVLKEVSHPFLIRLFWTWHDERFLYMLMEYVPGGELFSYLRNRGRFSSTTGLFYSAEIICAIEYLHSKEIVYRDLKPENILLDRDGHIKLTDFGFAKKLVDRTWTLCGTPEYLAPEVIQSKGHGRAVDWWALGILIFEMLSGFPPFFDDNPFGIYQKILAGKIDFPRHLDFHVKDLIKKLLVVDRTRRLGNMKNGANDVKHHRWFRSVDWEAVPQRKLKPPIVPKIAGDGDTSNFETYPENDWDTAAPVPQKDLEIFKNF

CC1(C)Cn2nc(-c3ccc(F)cn3)c(-c3ccnc4[nH]ncc34)c2CO1
inactive: [1] 8% | [2] 4% | [3] 6% | [4] 16% | [5] 5% | [6] 8% | [7] 1.3% | [8] -8% | [9] 5% | [10] -3% | [11] -9% | [12] 14% | [13] 0% | [14] -4% | [15] -8% | [16] 16% | [17] 2% | [18] -5% | [19] -2% | [20] 15% | [21] 26% | [22] 33.4% | [23] -1% | [24] 7% | [25] 5% | [26] -1.28% | [27] 23% | [28] -3% | [29] 9% | [30] 3% | [31] 9% | [32] 5% | [33] 50% | [34] -2% | [35] -4% | [36] 5% | [37] 16% | [38] 0% | [39] 9% | [40] 5% | [41] 11% | [42] 17% | [43] 2% | [44] -5% | [45] -2.78% | [46] 43.8% | [47] 9% | [48] 2.51% | [49] 12.4% | [50] 20% | [51] 4%
